“Also recorded” adds a separate entry of the source.
Columns and labels:
[1] = tested on: tobacco leaf discs transformed with CaMV35S-ASA2; assay: Selection of A. tumefaciens (pC2ASA2) transformed tobacco leaf discs on analog; type: cell-based, Nicotiana tabacum L. cv. Xanthi; settings: for resistant plants obtained (total of two experiments): 300 μm on TRM, 150 leaf discs for 4MI, 135 leaf discs for 7MT; for optimal concentration for selection of putative transformants: on TRM
Text: (§1) A vector pC2ASA2 was used, which contains a full length 2,144-bp AS feedback-insensitive α-subunit (ASA2) cDNA, encoding 616 amino acids including a putative transit peptide and 204 bp of 3′non-coding region driven by the CaMV35S promoter. pC2ASA2 was electroporated into Agrobacterium tumefaciens strain EHA105 and then used for the leaf disc transformation. Shoots of tobacco (Nicotiana tabacum L. cv. Xanthi) plants were maintained as in vitro stock cultures in Magenta boxes containing MS basal medium (Murashige and Skoog 1962) with 2 g 1-1 Gelrite® and leaves from these shoots were sources of explants for transformation. The growth conditions were 16-h photoperiod with a temperature of 28° C., florescent lamps providing a photosynthetic photon flux density of 150 μmol m-2 s-1 at the shelf surface. For segregation tests or for seedling growth inhibition tests on different analogs, 50 seeds/plate were surface sterilized with a solution of distilled water-Clorox (80:20; 1.25% Na hypochlorite) for 20 min containing a few drops of Tween 20™ and then rinsed with sterile water before spreading them on MS basal medium plates containing the appropriate selective agent.
Leaf discs (6 mm each in diameter) from 20 leaves of WT tobacco were used for each transformation experiment. After 6 weeks of selection on TRM with either 300 μM 4MI or 300 μM 7MT and 500 mg/l timentin to eliminate A. tumefaciens, the shoots regenerating from the callus were isolated and transferred to the Rooting Medium with analogs to initiate root growth. After root induction, the plantlets were transferred into soil and grown to maturity in a greenhouse. The T1 seeds were plated on either 4MI or 7MT for segregation tests and to obtain homozygous lines.
The ASA2 gene driven by the CaMV 35S promoter was transferred into tobacco leaf discs via the A. tumefaciens-mediated transformation method. Putative transformants were selected on TRM using the optimal concentration (300 μm) of 4MI and 7MT for selection. 31 resistant plants were obtained in two different experiments: 21 one on 4MI from a total of 150 leaf discs (10 resistant plants from 80 leaf discs in experiment 1 and 11 resistant plants from 70 leaf discs in experiment 2) and 10 on 7MT from a total of 135 leaf discs (6 resistant plants from 70 leaf discs in experiment 1 and 4 resistant plants from 65 leaf discs in experiment 2). […] GUS activity was assessed histochemically in PCR-GUS positive lines using leaf pieces confirming the results obtained with the molecular screening. When the transgenic plants were tested for ASA2 gene expression by RT-PCR an 815-bp fragment was amplified from total RNA extracted from young leaves from 15 transgenic lines while no fragment was detected in the WT. […]

[2] = tested on: tobacco shoot producing leaf discs; assay: Discrimination between wild type and ASA2 expressing tobacco shoot producing leaf discs; type: cell-based
Method: Various concentrations of the different analogs were tested on maize, soy bean, and tobacco that includes growth inhibition test of germination, leaf callus formation test, and other growth inhibition tests (FIGS. 15-38).
(§2) Leaf callus/shoot formation was studied on Tobacco Regeneration Medium that was MS basal medium with 88 μM 6-benzyladenine (BA) and 0.5 μM naphthalene acetic acid (NAA) and various concentrations of different Trp and indole analogs using a total of 30 leaf discs (6 mm each in diameter) from either the untransformed wild type (WT) tobacco or the ASA2 expressing transgenic line transformed with pAST-IV vector (line ASTIV) at 28° C. under fluorescent light as described above. Callus formation and shoot production was visually evaluated after 2, 4 and 6 weeks. Seedling growth inhibition was studied as described herein.

[3] = tested on: Arabidopsis germinating seedlings; assay: Discrimination between wild type and ASA2 expressing Arabidopsis germinating seedlings; type: in vivo; settings: Arabidopsis seeds
[4] = tested on: ASA2 expressing transgenic tobacco seedlings; assay: Seedling growth inhibition test, ASA2 expressing transgenic tobacco; type: in vivo, Nicotiana tabacum; settings: 75 μm analog; for germination and growth of T2 seed of homozygous ASA2 lines: four lines, pC2ASA2 transformants; for transgenic seedling growth: line ASTIV
Text: The concentrations listed in Table 1 are for illustrative purposes and should not be construed as a limited range. Seedling growth inhibition was studied by placing a total of 45 surface-sterilized seeds of either the wild-type (WT) tobacco (Nicotiana tabacum cv. Petit Havana SR1) or the ASA2 expressing transgenic plants previously obtained (Zhang et al., 2001), on Murashige-Skoog medium supplemented with 3% sucrose, vitamins, 0.8% agar and various concentrations of the different analogs (see Table 1). […] The analogs listed in Table 1 were obtained from Sigma-Aldrich (St. Louis, Mo.) or Acros Organics (Morris Plains, N.J.).
as §1
To test for the segregation of the transgene in the T1 generation, seeds of the transgenic lines were germinated on medium containing either 75 4MI or 75 μm 7MT for 21 days. The ratios of resistant/sensitive seedlings were for most of the lines close to the expected 3:1 ratio confirming a single nuclear site of insertion for the 15 lines tested.

[5] = tested on: tobacco leaf discs bombarded with vector pAST-IV; assay: Selection of plastid transformants (pAST-IV) on analog; type: cell-based, Nicotiana tabacum cv. Havana; settings: 60 leaf discs bombarded, 6-8 weeks selection
Method: DNA preparation, precipitation onto gold particles, and bombardment were performed as described previously (Svab & Maliga P, 1993) using 0.6 μm gold particles (Bio-Rad, Hercules, Calif.) as micro projectiles. Any suitable particle bombardment procedure can be used. Briefly, the plasmid containing the marker gene and a gene of interest are coated onto gold or tungsten microparticles. The coated particles are air dried and loaded on to a particle gun for particle bombardment into the desired tissue. Nicotiana tabacum cv. Havana was used in the experiments. Green calli and shoots resistant to either 7-MT or 4-MI were obtained after 6-8 wks of selection on RMOP medium (Svab et al., 1990) and subjected to three additional rounds of selection for the homoplastomic condition.
Six to eight weeks after bombardment, 28 independent resistant shoots/calli were recovered from 60 leaf discs bombarded with vector pAST-IV. The 28 lines selected directly for 4MI or 7MT resistance were tested by the PCR reaction using either primers specific for ASA2 gene (L40 and L 39) or a primer specific to the ASA2 coding region (L40) and a primer that is located in the plastid genome outside the flanking region of the vector (L29). […] A 815 bp (L40-L39) and a 2.1 kb (L40-L29) fragments were reproducibly detected in 5 transgenic of the 28 in dependent lines (3 from 7MT and 2 from 4 MI). […]

[6] = tested on: wild-type (WT) tobacco leaf discs; assay: Leaf callus/shoot formation inhibition, wild-type tobacco leaf discs; type: cell-based, Nicotiana tabacum; settings: for effectiveness as selection agent among the analogs tested: 9 Trp analogs and 7 indole analogs tested; for callus production of the wild-type / shoot formation of WT leaf discs: 300 μm analog
Method: (§3) Leaf callus formation was studied on the nutrient medium described herein using a total of 30 leaf discs at 28° C. under fluorescent light. After 2 weeks, callus formation was measured and after 4 weeks shoot production was recorded.
as §2

[7] = tested on: ASA2 expressing transgenic tobacco (line ASTIV); assay: Leaf callus formation and growth of ASA2 expressing (5MT resistant) tobacco plants; type: cell-based, Nicotiana tabacum; settings: 300 μm analog; for callus and shoot formation of ASA2 expressing leaf discs: after four/six weeks
Text: (§4) The concentrations listed in Table 1 are for illustrative purposes and should not be construed as a limited range. Seedling growth inhibition was studied by placing a total of 45 surface-sterilized seeds of either the wild-type (WT) tobacco (Nicotiana tabacum cv. Petit Havana SR1) or the ASA2 expressing transgenic plants previously obtained (Zhang et al., 2001), on Murashige-Skoog medium supplemented with 3% sucrose, vitamins, 0.8% agar and various concentrations of the different analogs (see Table 1). Seed germination and root formation were measured after 2 weeks, at 28° C. under fluorescent light. The analogs listed in Table 1 were obtained from Sigma-Aldrich (St. Louis, Mo.) or Acros Organics (Morris Plains, N.J.).
as §3, §2

[8] = tested on: wild-type (WT) tobacco seedlings; assay: Seedling growth inhibition test, wild-type tobacco; type: in vivo, Nicotiana tabacum; settings: for germination of WT and ASTIV seeds on analog containing medium / WT seedling growth: 75 μm analog; for WT seedling growth: after two weeks
Text: as §4, §1

[9] = tested on: AS holoenzyme of ASA2 transgenic tobacco lines; assay: AS holoenzyme activity, inhibition by Trp, ASA2 transgenic lines (10 mM Gln); type: biochemical, Nicotiana tabacum; settings: 300 μM Trp, pC2ASA2 lines
Method: (§5) Approximately 2 g of leaves was homogenized with 1.5 volume of ice-cold extraction buffer as described in Bernasconi et al., (1994). The homogenate was centrifuged at 30,000 g at 4° C. for 10 min. The supernatant was desalted using a Econo-Pac 10 DG column (Bio-Rad, Hercules, Calif.). Protein concentration was determined using a protein dye-binding assay kit (Bio-Rad, Hercules, Calif.). The supernatant was combined with two volumes of assay buffer as described previously (Bernasconi et al., 1994) but without NH4Cl. AS enzyme activity was measured as the conversion rate of chorismate to anthranilate as described previously (Song et al., 1998). Either 100 mM NH4Cl or 10 mM glutamine was added to the assay mixture to determine α-subunit activity or AS holoenzyme activity respectively and Trp at different concentrations. Duplicate extracts of each line were analyzed.

[10] = tested on: AS α subunit (feedback insensitive ASA2) of transgenic tobacco lines; assay: AS α subunit activity, inhibition by Trp, ASA2 transgenic lines (100 mM NH4Cl); type: biochemical, Nicotiana tabacum; settings: 300 μM Trp, pC2ASA2 lines
Method: as §5

[11] = tested on: anthranilate synthase (AS) holoenzyme of WT tobacco; assay: AS holoenzyme activity, inhibition by Trp, wild type (10 mM Gln as amino donor); type: biochemical, Nicotiana tabacum
Method: as §5

[12] = tested on: AS α subunit of WT tobacco; assay: AS α subunit activity, inhibition by Trp, wild type (100 mM NH4Cl as amino donor); type: biochemical, Nicotiana tabacum; settings: 10 μm Trp, Example 6
Method: as §5

| Structure (SMILES) | resistant plants obtained (total of two experiments) [1] | optimal concentration for selection of putative transformants [1] | concentration for discriminating between wild type and ASA2 expressing tobacco shoot producing leaf discs [2] | germination and growth of T2 seed of homozygous ASA2 lines [4] | transgenic seedling growth [4] | transgenic seedling development after six weeks [4] | PCR-confirmed transgenic lines among 28 independent resistant lines [5] | effectiveness as selection agent among the analogs tested [6] | callus production of the wild-type [6] | shoot formation of WT leaf discs [6] | growth of the ASA2 expressing (5-MT resistant) plants [7] | callus and shoot formation of ASA2 expressing leaf discs [7] | germination of WT and ASTIV seeds on analog containing medium [8] | WT seedling growth [8] | growth of the wild-type seedlings/roots ([8]; 300 μm analog) | also measured |
| --- | --- | --- | --- | --- | --- | --- | --- | --- | --- | --- | --- | --- | --- | --- | --- | --- |
| Cc1cccc2c(CC(N)C(=O)O)c[nH]c12 (racemic) [7MT, 7-methyl-DL-tryptophan] | 10 | 300 μm | 7MT 400 μM | all 100 seeds germinated and grew normally | grew well | growing with normal true leaf development | 3 | most effective | greater inhibition; also recorded: inhibited | little shoot formation | not affected | formed callus and produced shoots | germinate almost equally | started to bleach, ceased to grow and eventually died | completely inhibited | concentration for discriminating between wild type and ASA2 expressing Arabidopsis germinating seedlings [3]: 7MT 300 μM; effectiveness as selection agent among the analogs tested ([6]; listed as 7-MT): enhanced selection properties |
| N[C@@H](Cc1c[nH]c2ccccc12)C(=O)O [Trp, tryptophan] | – | – | – | – | – | – | – | – | – | – | – | – | – | – | – | holoenzyme activity retained by line #6 and line #7 [9]: about 40%; α-subunit activity retained by line #6 and line #7 [10]: about 40%; WT relative holoenzyme activity ([11]; 300 μM Trp, Example 9): almost completely inhibited; WT AS holoenzyme activity ([11]; 10 μm Trp, Example 6): almost completely inhibited; WT AS α subunit activity [12]: almost completely inhibited |
| Cc1cccc2[nH]ccc12 [4MI, 4-Methylindole] | 21 | 300 μm | 4MI 300 μM | all 100 seeds germinated and grew normally | grew well | growing with normal true leaf development | 2 | most effective | greater inhibition; also recorded: inhibited | little shoot formation | not affected | formed callus and produced shoots | germinate almost equally | started to bleach, ceased to grow and eventually died | completely inhibited | effectiveness as selection agent among the analogs tested ([6]; listed as 4-MI): enhanced selection properties; wild-type plant germination ([8]; 300 μm analog): inhibited |
